Reference: patent publication US9744186B2 (priority 2012, dated 2017)

Test system: HCV luciferase replicon
Test: Isobologram analysis of synergism with other anti-viral compounds
Format: cell-based, hepatitis C virus (HCV)
Protocol: Isobologram analysis was carried to assess the potential synergistic interaction of representative disclosed compounds with representative antiviral compounds. The isobolgram analysis was conducted as previously described by Chou and Talalay (see Chou T. C. and Talalay P. “Analysis of combined drug effects: a new look at a very old problem.” Trends Pharmacol Sci 1983; 4:450-4; and Chou T. C. and Talalay P. “Quantitative analysis of dose-effect relationships: the combined effects of multiple drugs or enzyme inhibitors.” Adv Enzyme Regul 1984; 22:27-55). The definitions of synergism are those described by Chou (see Chou, T. C. (2006) Theoretical basis, experimental design, and computerized simulation of synergism and antagonism in drug combination studies. Pharmacol Rev. 58(3):621-81).
Data for the isobologram analysis are shown in FIGS. 12-15, and shown in each figure are the test compound concentrations and corresponding combination index.

Question: `COc1cc(C(=O)Nc2ccn([C@@H]3O[C@H](CO)[C@@H](O)C3(F)F)c(=O)n2)cc(OC)c1OC` [GTB, N^4-(3,4,5-Trimethoxybenzoyl)gemcitabine] was tested. Which “Interaction Type with BMS-790052” value (Compound 2 = BMS-790052) did it give?
Answer: moderate synergism

Question: What about the “Interaction Type with PSI-7977” value (Compound 2 = PSI-7977) of the same compound?
Answer: moderate antagonism
